From paper PMC4770715, “LIM kinase inhibitors disrupt mitotic microtubule organization and impair tumor cell proliferation” (Oncotarget, 2015)

How the values were obtained:
Test in all cases: biochemical
Design in all cases: KINOMEscan active-site competition binding, percent of control (100 = no competition)
Settings in all cases: competition binding, percent control
FGFR3 = FGFR3 (Homo sapiens, UniProt P22607)
From the text: (§1) Given the potential for the use of LIMK inhibitors as cancer chemotherapeutics, a high-throughput drug discovery and medicinal chemistry program was undertaken. Details of the screening methodology and description of initial hit matter were described in [38]. […] Details of their chemical synthesis are described in Charles et al.. […] These and additional physiochemical parameters are in Supplemental Table 5. […] Kinases inhibited >25% to 50% have yellow circles, 51% to 75% have orange circles, and >76% have red circles. In each case, the size of the circle is proportional to percentage inhibition. LIMK1 and LIMK2 positions are indicated in blue. Illustration reproduced courtesy of Cell Signaling Technology, Inc. (www.cellsignal.com). B. CRT0105950 structure and kinome selectivity mapping as described above. C.

[1] = molecular target: T1, RSK1(Kin.Dom.1-N-terminal) (Homo sapiens, UniProt Q15418)
T1 construct: gene RPS6KA1; Kin.Dom.1-N-terminal
T1 sequence (Q15418 whole entry): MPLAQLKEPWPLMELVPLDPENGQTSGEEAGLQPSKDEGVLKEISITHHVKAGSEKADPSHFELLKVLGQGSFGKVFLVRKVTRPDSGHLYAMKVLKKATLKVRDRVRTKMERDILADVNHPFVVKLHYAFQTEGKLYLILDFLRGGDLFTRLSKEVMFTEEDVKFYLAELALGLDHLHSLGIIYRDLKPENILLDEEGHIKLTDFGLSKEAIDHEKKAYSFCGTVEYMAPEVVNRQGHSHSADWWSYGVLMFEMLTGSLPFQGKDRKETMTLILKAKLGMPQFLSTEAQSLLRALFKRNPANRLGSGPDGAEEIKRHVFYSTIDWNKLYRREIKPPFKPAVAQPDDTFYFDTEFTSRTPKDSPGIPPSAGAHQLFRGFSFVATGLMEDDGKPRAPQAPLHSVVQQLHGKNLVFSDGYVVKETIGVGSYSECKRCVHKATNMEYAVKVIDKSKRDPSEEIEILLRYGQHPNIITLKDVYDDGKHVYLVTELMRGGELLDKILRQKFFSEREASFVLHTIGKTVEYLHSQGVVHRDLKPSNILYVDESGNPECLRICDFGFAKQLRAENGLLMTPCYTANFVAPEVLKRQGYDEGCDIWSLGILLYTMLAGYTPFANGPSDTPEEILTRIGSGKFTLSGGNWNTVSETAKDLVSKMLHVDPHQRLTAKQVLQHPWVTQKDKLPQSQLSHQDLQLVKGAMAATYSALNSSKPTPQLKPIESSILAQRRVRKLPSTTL
From the text: as §1

MRCKB = molecular target: T2, MRCKB (Homo sapiens, UniProt Q9Y5S2)
T2 construct: gene CDC42BPB
T2 sequence (Q9Y5S2 whole entry): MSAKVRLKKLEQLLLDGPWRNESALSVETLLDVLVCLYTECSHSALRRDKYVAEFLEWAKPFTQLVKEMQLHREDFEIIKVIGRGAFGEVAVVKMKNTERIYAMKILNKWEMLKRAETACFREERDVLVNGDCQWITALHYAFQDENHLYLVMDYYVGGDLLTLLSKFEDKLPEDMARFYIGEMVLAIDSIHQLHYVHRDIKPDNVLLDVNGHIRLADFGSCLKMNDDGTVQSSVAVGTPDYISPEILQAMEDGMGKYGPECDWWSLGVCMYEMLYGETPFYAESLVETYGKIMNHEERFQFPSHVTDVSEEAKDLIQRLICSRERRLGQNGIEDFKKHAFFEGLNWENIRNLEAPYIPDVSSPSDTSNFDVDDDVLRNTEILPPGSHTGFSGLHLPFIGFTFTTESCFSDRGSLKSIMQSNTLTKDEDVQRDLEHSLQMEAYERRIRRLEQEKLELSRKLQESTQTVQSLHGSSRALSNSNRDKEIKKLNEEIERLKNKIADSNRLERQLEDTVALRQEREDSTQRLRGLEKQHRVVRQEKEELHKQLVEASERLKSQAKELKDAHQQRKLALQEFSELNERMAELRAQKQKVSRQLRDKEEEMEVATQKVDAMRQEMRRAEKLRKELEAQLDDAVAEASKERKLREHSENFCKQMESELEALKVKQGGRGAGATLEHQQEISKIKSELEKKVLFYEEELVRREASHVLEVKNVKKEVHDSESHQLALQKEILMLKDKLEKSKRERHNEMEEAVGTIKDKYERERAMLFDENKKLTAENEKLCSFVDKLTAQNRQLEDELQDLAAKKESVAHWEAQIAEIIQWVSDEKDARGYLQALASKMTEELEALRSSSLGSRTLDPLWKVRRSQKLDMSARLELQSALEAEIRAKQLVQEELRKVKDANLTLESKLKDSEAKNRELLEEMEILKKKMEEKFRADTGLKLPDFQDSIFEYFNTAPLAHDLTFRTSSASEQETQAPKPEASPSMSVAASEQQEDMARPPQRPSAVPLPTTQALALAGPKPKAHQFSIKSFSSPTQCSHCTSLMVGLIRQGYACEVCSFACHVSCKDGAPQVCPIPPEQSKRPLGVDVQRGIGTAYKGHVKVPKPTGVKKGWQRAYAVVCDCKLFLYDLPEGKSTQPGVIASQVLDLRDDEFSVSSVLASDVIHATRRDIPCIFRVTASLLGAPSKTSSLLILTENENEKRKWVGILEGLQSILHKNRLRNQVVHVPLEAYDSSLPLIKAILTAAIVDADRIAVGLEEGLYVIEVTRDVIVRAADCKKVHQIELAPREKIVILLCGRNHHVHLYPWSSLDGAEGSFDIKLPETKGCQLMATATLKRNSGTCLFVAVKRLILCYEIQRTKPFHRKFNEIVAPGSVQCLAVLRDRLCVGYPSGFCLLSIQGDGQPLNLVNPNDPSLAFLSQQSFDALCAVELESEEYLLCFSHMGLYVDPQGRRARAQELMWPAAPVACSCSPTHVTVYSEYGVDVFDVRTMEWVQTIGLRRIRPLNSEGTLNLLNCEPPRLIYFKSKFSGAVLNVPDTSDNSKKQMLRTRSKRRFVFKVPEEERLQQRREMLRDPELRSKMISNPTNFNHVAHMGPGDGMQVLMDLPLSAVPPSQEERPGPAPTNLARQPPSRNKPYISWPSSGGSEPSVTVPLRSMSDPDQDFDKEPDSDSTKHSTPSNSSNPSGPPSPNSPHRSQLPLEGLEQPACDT
From the text: as §1

SRPK2 = SRPK2 (Homo sapiens, UniProt P78362)
Sequence of SRPK2 (P78362 whole entry): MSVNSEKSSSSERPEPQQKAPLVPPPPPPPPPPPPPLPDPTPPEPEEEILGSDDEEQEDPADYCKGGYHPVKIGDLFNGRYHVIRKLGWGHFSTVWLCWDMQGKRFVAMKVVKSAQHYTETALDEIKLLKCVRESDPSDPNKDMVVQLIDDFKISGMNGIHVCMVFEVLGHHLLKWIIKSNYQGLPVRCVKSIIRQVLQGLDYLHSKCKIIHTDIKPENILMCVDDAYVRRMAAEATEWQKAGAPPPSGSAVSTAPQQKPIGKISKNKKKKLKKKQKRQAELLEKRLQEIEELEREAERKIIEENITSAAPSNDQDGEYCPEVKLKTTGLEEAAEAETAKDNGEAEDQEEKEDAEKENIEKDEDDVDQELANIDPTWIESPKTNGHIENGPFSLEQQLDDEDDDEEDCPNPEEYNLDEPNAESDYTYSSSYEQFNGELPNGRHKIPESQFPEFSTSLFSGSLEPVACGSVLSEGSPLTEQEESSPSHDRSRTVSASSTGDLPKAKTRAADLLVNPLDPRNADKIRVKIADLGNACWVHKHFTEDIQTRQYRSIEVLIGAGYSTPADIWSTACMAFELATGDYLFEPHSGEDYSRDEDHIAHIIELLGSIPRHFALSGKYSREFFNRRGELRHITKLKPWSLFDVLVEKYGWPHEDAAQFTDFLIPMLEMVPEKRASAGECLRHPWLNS
From the text: as §1

CSNK1G3 = CSNK1G3 (Homo sapiens, UniProt Q9Y6M4)
From the text: as §1

MELK = MELK (Homo sapiens, UniProt Q14680)
From the text: as §1

GAK = GAK (Homo sapiens, UniProt O14976)
From the text: as §1

[2] = molecular target: T3, RSK4(Kin.Dom.1-N-terminal) (Homo sapiens, UniProt Q9UK32)
T3 construct: gene RPS6KA6; Kin.Dom.1-N-terminal
T3 sequence (Q9UK32 whole entry): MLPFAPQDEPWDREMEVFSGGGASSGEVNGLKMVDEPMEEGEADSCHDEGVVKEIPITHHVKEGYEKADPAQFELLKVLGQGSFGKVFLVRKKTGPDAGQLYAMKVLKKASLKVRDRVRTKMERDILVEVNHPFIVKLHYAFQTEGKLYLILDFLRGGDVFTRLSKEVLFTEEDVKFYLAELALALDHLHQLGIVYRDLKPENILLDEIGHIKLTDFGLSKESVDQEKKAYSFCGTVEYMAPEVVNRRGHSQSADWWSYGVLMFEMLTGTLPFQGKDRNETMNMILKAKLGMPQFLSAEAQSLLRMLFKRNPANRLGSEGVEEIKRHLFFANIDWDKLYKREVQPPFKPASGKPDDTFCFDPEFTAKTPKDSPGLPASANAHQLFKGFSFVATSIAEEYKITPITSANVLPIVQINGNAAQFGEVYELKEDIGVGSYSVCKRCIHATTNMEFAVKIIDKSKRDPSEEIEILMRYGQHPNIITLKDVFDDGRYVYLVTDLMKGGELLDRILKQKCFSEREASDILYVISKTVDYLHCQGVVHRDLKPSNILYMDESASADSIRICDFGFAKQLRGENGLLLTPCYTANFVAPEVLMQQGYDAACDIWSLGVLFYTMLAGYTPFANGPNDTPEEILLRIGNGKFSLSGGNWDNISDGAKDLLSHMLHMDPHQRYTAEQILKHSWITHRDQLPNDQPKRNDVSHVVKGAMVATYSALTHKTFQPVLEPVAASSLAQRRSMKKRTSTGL
From the text: as §1

MKNK2 = MKNK2 (Homo sapiens, UniProt Q9HBH9)
From the text: as §1

MAP4K5 = MAP4K5 (Homo sapiens, UniProt Q9Y4K4)
From the text: as §1

FLT3(N841I) = FLT3(N841I) (Homo sapiens, UniProt P36888, N841I)
From the text: as §1

TYRO3 = TYRO3 (Homo sapiens, UniProt Q06418)
Sequence of TYRO3 (Q06418 whole entry): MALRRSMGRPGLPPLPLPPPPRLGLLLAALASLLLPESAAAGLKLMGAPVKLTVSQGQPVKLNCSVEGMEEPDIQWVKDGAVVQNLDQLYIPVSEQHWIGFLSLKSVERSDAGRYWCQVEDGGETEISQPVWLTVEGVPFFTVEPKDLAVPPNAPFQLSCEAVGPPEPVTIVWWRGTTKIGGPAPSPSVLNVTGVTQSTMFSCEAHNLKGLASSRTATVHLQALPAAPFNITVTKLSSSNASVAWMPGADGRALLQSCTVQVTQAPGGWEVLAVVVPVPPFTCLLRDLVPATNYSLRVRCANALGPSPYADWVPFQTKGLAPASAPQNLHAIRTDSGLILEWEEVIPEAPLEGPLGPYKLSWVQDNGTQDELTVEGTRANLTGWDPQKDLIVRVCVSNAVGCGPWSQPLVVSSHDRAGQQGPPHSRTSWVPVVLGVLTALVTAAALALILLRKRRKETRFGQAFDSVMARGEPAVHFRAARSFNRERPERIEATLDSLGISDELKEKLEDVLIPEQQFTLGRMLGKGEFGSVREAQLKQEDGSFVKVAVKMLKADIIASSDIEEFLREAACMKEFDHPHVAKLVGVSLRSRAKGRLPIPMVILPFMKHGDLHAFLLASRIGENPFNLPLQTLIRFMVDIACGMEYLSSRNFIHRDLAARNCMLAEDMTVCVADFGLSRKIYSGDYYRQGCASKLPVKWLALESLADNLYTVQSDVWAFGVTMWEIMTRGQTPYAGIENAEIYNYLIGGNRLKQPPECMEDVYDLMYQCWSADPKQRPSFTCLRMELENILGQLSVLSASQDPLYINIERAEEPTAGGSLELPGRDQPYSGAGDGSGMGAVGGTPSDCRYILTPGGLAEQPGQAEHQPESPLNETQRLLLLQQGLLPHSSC
From the text: as §1

[3] = molecular target: T4, RSK4(Kin.Dom.2-C-terminal) (Homo sapiens, UniProt Q9UK32)
T4 construct: gene RPS6KA6; Kin.Dom.2-C-terminal
T4 sequence (Q9UK32 whole entry): as the sequence (Q9UK32 whole entry) above
From the text: as §1

NEK2 = NEK2 (Homo sapiens, UniProt P51955)
From the text: as §1

TAOK1 = TAOK1 (Homo sapiens, UniProt Q7L7X3)
From the text: as §1

PRKCI = PRKCI (Homo sapiens, UniProt P41743)
From the text: as §1

CDKL2 = CDKL2 (Homo sapiens, UniProt Q92772)
From the text: as §1

MST1 = molecular target: T5, MST1 (Homo sapiens, UniProt Q13043)
T5 construct: gene STK4
From the text: as §1

TRKB = molecular target: T6, TRKB (Homo sapiens, UniProt Q16620)
T6 construct: gene NTRK2
From the text: as §1

TESK1 = TESK1 (Homo sapiens, UniProt Q15569)
From the text: as §1

FLT3(ITD) = FLT3(ITD) (Homo sapiens, UniProt P36888, ITD)
From the text: as §1

p38-delta = molecular target: T7, p38-delta (Homo sapiens, UniProt O15264)
T7 construct: gene MAPK13
From the text: as §1

For COc1ccc(-c2cnccc2-c2cnc(NC(=O)C(C)C)s2)c(C(F)(F)F)c1 [CRT0105446, N-{5-[3-(4-Methoxy-2-trifluoromethyl-phenyl)-pyridin-4-yl]-hiazol-2-yl}-isobutyramide], the remaining binding at 10 µM (FGFR3) was 96%, the remaining binding at 10 µM [1] was 56% and the remaining binding at 10 µM (MRCKB) was 93%. For the same compound, the remaining binding at 10 µM (SRPK2) was 93%, the remaining binding at 10 µM (CSNK1G3) was 67% and the remaining binding at 10 µM (MELK) was 100%. The remaining binding at 10 µM (GAK) was 92%, the remaining binding at 10 µM [2] was 59% and the remaining binding at 10 µM (MKNK2) was 68%. The remaining binding at 10 µM (MAP4K5) was 100%, the remaining binding at 10 µM (FLT3(N841I)) was 22% and the remaining binding at 10 µM (TYRO3) was 100%. The remaining binding at 10 µM [3] was 16%, the remaining binding at 10 µM (NEK2) was 100% and the remaining binding at 10 µM (TAOK1) was 93%. For the same compound, the remaining binding at 10 µM (PRKCI) was 81%, the remaining binding at 10 µM (CDKL2) was 2.2% and the remaining binding at 10 µM (MST1) was 100%. For the same compound, the remaining binding at 10 µM (TRKB) was 99%, the remaining binding at 10 µM (TESK1) was 96% and the remaining binding at 10 µM (FLT3(ITD)) was 79%. For the same compound, the remaining binding at 10 µM (p38-delta) was 97%.

Cc1ccc(-c2cnccc2-c2cnc(Nc3ccc(O)cc3)s2)c(Cl)c1 [CRT0105950, 4-{5-[3-(2-Chloro-4-methyl-phenyl)-pyridin-4-yl]-thiazol-2-ylamino}-phenol] gave a remaining binding at 10 µM (FGFR3) of 4.8%, a remaining binding at 10 µM [1] of 0.05% and a remaining binding at 10 µM (MRCKB) of 78%. For the same compound, the remaining binding at 10 µM (SRPK2) was 83%, the remaining binding at 10 µM (CSNK1G3) was 43% and the remaining binding at 10 µM (MELK) was 11%. The remaining binding at 10 µM (GAK) was 22%, the remaining binding at 10 µM [2] was 0.4% and the remaining binding at 10 µM (MKNK2) was 1.8%. It also gave a remaining binding at 10 µM (MAP4K5) of 32%, a remaining binding at 10 µM (FLT3(N841I)) of 0% and a remaining binding at 10 µM (TYRO3) of 51%. The remaining binding at 10 µM [3] was 2.9%, the remaining binding at 10 µM (NEK2) was 82% and the remaining binding at 10 µM (TAOK1) was 17%. It also gave a remaining binding at 10 µM (PRKCI) of 79%, a remaining binding at 10 µM (CDKL2) of 0.6% and a remaining binding at 10 µM (MST1) of 3.4%. The remaining binding at 10 µM (TRKB) was 6.4%, the remaining binding at 10 µM (TESK1) was 20% and the remaining binding at 10 µM (FLT3(ITD)) was 4.4%. The remaining binding at 10 µM (p38-delta) was 100%.
